{
  "source": "patent US9113629B2",
  "about": "“4-amino-6-(4-substituted-phenyl)-picolinates and 6-amino-2-(4-substituted-phenyl)-pyrimidine-4-carboxylates and their use as herbicides” (DOW AGROSCIENCES LLC, priority 2013, dated 2015)",
  "key": {"[1]": {"system": "Key Grass and Sedge Weeds as well as Grass Crops", "assay": "Post-emergent Test II herbicidal activity (Table 6)", "type": "in vivo", "conditions": "post-emergence, 336 h; for pest or weed control at 66 g/ha: application rate 66 g ai/ha; for pest or weed control at 132 g/ha: application rate 132 g ai/ha", "procedure,_shortened": "(§1)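 Post-emergence foliar spray, 187 L/ha, track sprayer at 43 cm above canopy. Carrier: acetone/water/IPA/DMSO/Atplus 411F/Triton X-155. Plants at 1st–2nd true leaf; subirrigated afterwards; % injury scored visually at 14 d.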"}, "[2]": {"system": "Key Broadleaf Weed and Crop Species", "assay": "Post-emergent Test II herbicidal activity (Table 5)", "type": "in vivo", "conditions": "post-emergence, 336 h, post-emergent, 14 days after application; for pest or weed control at 66 g/ha: 66 g ai/ha; for pest or weed control at 132 g/ha: 132 g ai/ha", "procedure,_shortened": "as §1"}, "[3]": {"conditions": "Triticum aestivum, TRZSS (wheat), read-out: Visual Growth Reduction (%) 14 Days After Application, TRZSS"}, "[4]": {"conditions": "CYPES: yellow nutsedge (Cyperus esculentus), read-out: Visual Growth Reduction (%) 14 Days After Application, CYPES"}, "[5]": {"conditions": "DIGSA: crabgrass (Digitaria sanguinalis), read-out: Visual Growth Reduction (%) 14 Days After Application, DIGSA"}, "[6]": {"conditions": "ECHCG: barnyardgrass (Echinochloa crus-galli), read-out: Visual Growth Reduction (%) 14 Days After Application, ECHCG"}, "[7]": {"conditions": "ORYSA: rice (Oryza sativa), read-out: Visual Growth Reduction (%) 14 Days After Application, ORYSA"}, "[8]": {"conditions": "SETFA: giant foxtail (Setaria faberi), read-out: Visual Growth Reduction (%) 14 Days After Application, SETFA"}, "[9]": {"conditions": "SORVU: grain sorghum (Sorghum vulgare), read-out: Visual Growth Reduction (%) 14 Days After Application, SORVU"}, "[10]": {"conditions": "ZEAMX: maize, corn (Zea mays), read-out: Visual Growth Reduction (%) 14 Days After Application, ZEAMX"}, "[11]": {"conditions": "ABUTH: velvetleaf (Abutilon theophrasti), read-out: Visual Growth Reduction (%) 14 Days After Application ABUTH"}, "[12]": {"conditions": "AMARE: redroot pigweed (Amaranthus retroflexus), read-out: Visual Growth Reduction (%) 14 Days After Application AMARE"}, "[13]": {"conditions": "BRSNN: oilseed-rape, canola (Brassica napus), read-out: Visual Growth Reduction (%) 14 Days After Application BRSNN"}, "[14]": {"conditions": "CHEAL: lambsquarters (Chenopodium album), read-out: Visual Growth Reduction (%) 14 Days After Application CHEAL"}, "[15]": {"conditions": "EPHHL: wild poinsettia (Euphorbia heterophylla), read-out: Visual Growth Reduction (%) 14 Days After Application EPHHL"}, "[16]": {"conditions": "HELAN: sunflower (Helianthus annuus), read-out: Visual Growth Reduction (%) 14 Days After Application HELAN"}, "[17]": {"conditions": "VIOTR: wild pansy (Viola tricolor), read-out: Visual Growth Reduction (%) 14 Days After Application VIOTR"}},
  "note": "Read-outs that look alike come from different tables or passages of the source.",
  "data": [
    {"smiles": "C#Cc1ccc(-c2nc(C(=O)OC)c(Cl)c(N)c2C)cc1", "note": "[Compound 40, methyl 4-amino-3-chloro-6-(4-ethynylphenyl)-5-methylpicolinate]", "values": [
      {"measurement": "pest or weed control at 66 g/ha", "setting": "[1]; [3]", "result": "0 to 29", "unit": "%"},
      {"measurement": "pest or weed control at 132 g/ha", "setting": "[1]; [3]", "result": "0 to 29", "unit": "%"},
      {"measurement": "pest or weed control at 66 g/ha", "setting": "[1]; [4]", "result": "0 to 29", "unit": "%"},
      {"measurement": "pest or weed control at 132 g/ha", "setting": "[1]; [4]", "result": "0 to 29", "unit": "%"},
      {"measurement": "pest or weed control at 66 g/ha", "setting": "[1]; [5]", "result": "0 to 29", "unit": "%"},
      {"measurement": "pest or weed control at 132 g/ha", "setting": "[1]; [5]", "result": "0 to 29", "unit": "%"},
      {"measurement": "pest or weed control at 66 g/ha", "setting": "[1]; [6]", "result": "0 to 29", "unit": "%"},
      {"measurement": "pest or weed control at 132 g/ha", "setting": "[1]; [6]", "result": "0 to 29", "unit": "%"},
      {"measurement": "pest or weed control at 66 g/ha", "setting": "[1]; [7]", "result": "0 to 29", "unit": "%"},
      {"measurement": "pest or weed control at 132 g/ha", "setting": "[1]; [7]", "result": "0 to 29", "unit": "%"},
      {"measurement": "pest or weed control at 66 g/ha", "setting": "[1]; [8]", "result": "0 to 29", "unit": "%"},
      {"measurement": "pest or weed control at 132 g/ha", "setting": "[1]; [8]", "result": "0 to 29", "unit": "%"},
      {"measurement": "pest or weed control at 66 g/ha", "setting": "[1]; [9]", "result": "0 to 29", "unit": "%"},
      {"measurement": "pest or weed control at 132 g/ha", "setting": "[1]; [9]", "result": "0 to 29", "unit": "%"},
      {"measurement": "pest or weed control at 66 g/ha", "setting": "[1]; [10]", "result": "0 to 29", "unit": "%"},
      {"measurement": "pest or weed control at 132 g/ha", "setting": "[1]; [10]", "result": "0 to 29", "unit": "%"},
      {"measurement": "pest or weed control at 66 g/ha", "setting": "[2]; [11]", "result": "75 to 84", "unit": "%"},
      {"measurement": "pest or weed control at 132 g/ha", "setting": "[2]; [11]", "result": "95 to 100", "unit": "%"},
      {"measurement": "pest or weed control at 66 g/ha", "setting": "[2]; [12]", "result": "0 to 29", "unit": "%"},
      {"measurement": "pest or weed control at 132 g/ha", "setting": "[2]; [12]", "result": "45 to 59", "unit": "%"},
      {"measurement": "pest or weed control at 66 g/ha", "setting": "[2]; [13]", "result": "45 to 59", "unit": "%"},
      {"measurement": "pest or weed control at 132 g/ha", "setting": "[2]; [13]", "result": "45 to 59", "unit": "%"},
      {"measurement": "pest or weed control at 66 g/ha", "setting": "[2]; [14]", "result": "45 to 59", "unit": "%"},
      {"measurement": "pest or weed control at 132 g/ha", "setting": "[2]; [14]", "result": "60 to 74", "unit": "%"},
      {"measurement": "pest or weed control at 66 g/ha", "setting": "[2]; [15]", "result": "0 to 29", "unit": "%"},
      {"measurement": "pest or weed control at 132 g/ha", "setting": "[2]; [15]", "result": "0 to 29", "unit": "%"},
      {"measurement": "pest or weed control at 66 g/ha", "setting": "[2]; [16]", "result": "85 to 94", "unit": "%"},
      {"measurement": "pest or weed control at 132 g/ha", "setting": "[2]; [16]", "result": "95 to 100", "unit": "%"},
      {"measurement": "pest or weed control at 66 g/ha", "setting": "[2]; [17]", "result": "0 to 29", "unit": "%"},
      {"measurement": "pest or weed control at 132 g/ha", "setting": "[2]; [17]", "result": "0 to 29", "unit": "%"}
    ]}
  ]
}
